Values after ≈ are worked out from the molar mass of the structure shown.
Columns and labels:
[1] = test system: Pseudomonas aeruginosa ATCC 27853; test: MIC, broth microdilution (CLSI) versus planktonic bacteria; format: cell-based; details: ATCC27853; Pseudomonas aeruginosa ATCC 27853; 16-20 h; mode of three independent experiments; read-out: MIC, Pa ATCC 27853
[2] = test system: human hepatic cell line (HepG2 ATCC HB-8065); test: Human cell viability assay (CellTiter-Glo); details: Homo sapiens, HepG2, 24 h, read-out: IC50 (μg/mL) HepG2
[3] = test system: Streptococcus pneumoniae ATCC 49619; test: MIC, broth microdilution (CLSI) versus planktonic bacteria; format: cell-based; details: ATCC49619; Streptococcus pneumoniae ATCC 49619; 16-20 h; mode of three independent experiments; read-out: MIC, Sp ATCC 49619
[4] = test system: Enterobacter cloacae NCTC 13406; test: as above; format: cell-based; details: NCTC13406; Enterobacter cloacae NCTC 13406; 16-20 h; mode of three independent experiments; read-out: MIC, Ecl NCTC 13406
[5] = test system: Staphylococcus aureus ATCC 29213; test: as above; format: cell-based; details: ATCC29213; Staphylococcus aureus ATCC 29213; 16-20 h; mode of three independent experiments; read-out: MIC, Sa ATCC 29213
[6] = test system: Acinetobacter baumannii NCTC 13420; test: as above; format: cell-based; details: NCTC13420; Acinetobacter baumannii NCTC 13420; 16-20 h; mode of three independent experiments; read-out: MIC, Ab NCTC 13420
[7] = test system: Escherichia coli ATCC 25922; test: as above; format: cell-based; details: ATCC25922; Escherichia coli ATCC 25922; 16-20 h; mode of three independent experiments; read-out: MIC, Ec ATCC 25922
[8] = test system: Haemophilus influenzae ATCC 49247; test: as above; format: cell-based; details: ATCC49247; Haemophilus influenzae ATCC 49247; 16-20 h; mode of three independent experiments; read-out: MIC, Hi ATCC 49247

Row | Structure (SMILES) | MIC [1] [µg/mL] | IC50 [2] [µg/mL] | MIC [3] [µg/mL] | MIC [4] [µg/mL] | MIC [5] [µg/mL] | MIC [6] [µg/mL] | MIC [7] [µg/mL] | MIC [8] [µg/mL]
1 | COc1ccc2ccc(=O)n(CCN[C@H]3CC[C@H]4[C@@H](C3)OC(=O)N4c3ncc4c(n3)NC(=O)CO4)c2n1 [Compound 16] | 1 to 10 (≈ 1.97 to 19.7 µM) | > 100 | < 1 | 1 to 10 (≈ 1.97 to 19.7 µM) | < 1 | 1 to 10 (≈ 1.97 to 19.7 µM) | < 1 | < 1
2 | COc1ncc2ccc(=O)n(CCN[C@H]3CC[C@H]4[C@@H](C3)OC(=O)N4c3ccc4c(n3)NC(=O)CO4)c2n1 [Compound 17, (3aS,6S,7aR)-6-[(2-{2-methoxy-7-oxo-7H,8H-pyrido[2,3-d]pyrimidin-8-yl}ethyl)amino]-3-{3-oxo-2H,3H,4H-pyrido[3,2-b][1,4]oxazin-6-yl}-octahydro-1,3-benzoxazol-2-one] | 10 to 100 (≈ 19.7 to 197 µM) | 10 to 100 (≈ 19.7 to 197 µM) | 10 to 100 (≈ 19.7 to 197 µM) | 10 to 100 (≈ 19.7 to 197 µM) | 1 to 10 (≈ 1.97 to 19.7 µM) | 10 to 100 (≈ 19.7 to 197 µM) | 1 to 10 (≈ 1.97 to 19.7 µM) | 10 to 100 (≈ 19.7 to 197 µM)
3 | N#Cc1ccc2ccc(=O)n(CCN(CCN)[C@@H]3CC[C@@H]4[C@@H](C3)OC(=O)N4c3ccc4c(n3)NC(=O)CO4)c2c1 [Compound 19, 1-(2-{[(3aR,6R,7aR)-2-oxo-3-{3-oxo-2H,3H,4H-pyrido[3,2-b][1,4]oxazin-6-yl}-octahydro-1,3-benzoxazol-6-yl](2-aminoethyl)amino}ethyl)-2-oxo-1,2-dihydroquinoline-7-carbonitrile] | 10 to 100 (≈ 18.4 to 184 µM) | > 100 | > 100 | > 100 | < 1 | 10 to 100 (≈ 18.4 to 184 µM) | 10 to 100 (≈ 18.4 to 184 µM) | 10 to 100 (≈ 18.4 to 184 µM)
4 | O=C1COc2ccc(N3C(=O)O[C@@H]4C[C@H](NCCn5c(=O)ccc6ccc(O)cc65)CC[C@H]43)nc2N1 [Compound 20, 1-(2-{[(3aR,6R,7aR)-2-oxo-3-{3-oxo-2H,3H,4H-pyrido[3,2-b][1,4]oxazin-6-yl}-octahydro-1,3-benzoxazol-6-yl]amino}ethyl)-7-hydroxy-1,2-dihydroquinolin-2-one] | 1 to 10 (≈ 2.03 to 20.3 µM) | > 100 | 10 to 100 (≈ 20.3 to 203 µM) | 1 to 10 (≈ 2.03 to 20.3 µM) | < 1 | 10 to 100 (≈ 20.3 to 203 µM) | < 1 | < 1
5 | COc1ccc2ccc(=O)n(CCN[C@@H]3CC[C@@H]4[C@H](C3)OC(=O)N4c3ccc4c(n3)NC(=O)CO4)c2n1 [Compound 25, 1-(2-{[(3aR,6R,7aS)-2-oxo-3-{3-oxo-2H,3H,4H-pyrido[3,2-b][1,4]oxazin-6-yl}-octahydro-1,3-benzoxazol-6-yl]amino}ethyl)-7-methoxy-1,2-dihydro-1,8-naphthyridin-2-one] | 1 to 10 (≈ 1.97 to 19.7 µM) | 10 to 100 (≈ 19.7 to 197 µM) | < 1 | < 1 | < 1 | < 1 | < 1 | < 1
6 | O=C1COc2ccc(N3C(=O)O[C@@H]4C[C@@H](NCCn5c(=O)cnc6ccc(F)cc65)CC[C@@H]43)nc2N1 [Compound 26, 1-(2-{[(3aS,6S,7aR)-2-oxo-3-{3-oxo-2H,3H,4H-pyrido[3,2-b][1,4]oxazin-6-yl}-octahydro-1,3-benzoxazol-6-yl]amino}ethyl)-7-fluoro-1,2-dihydroquinoxalin-2-one] | 1 to 10 (≈ 2.02 to 20.2 µM) | > 100 | < 1 | 1 to 10 (≈ 2.02 to 20.2 µM) | < 1 | < 1 | < 1 | < 1
7 | COc1ncc2ccc(=O)n(CCN[C@@H]3CC[C@@H]4[C@@H](C3)OC(=O)N4c3ncc4c(n3)NC(=O)CO4)c2n1 [Compound 33, (3aR,6R,7aR)-6-[(2-{2-methoxy-7-oxo-7H,8H-pyrido[2,3-d]pyrimidin-8-yl}ethyl)amino]-3-{7-oxo-6H,7H,8H-pyrimido[5,4-b][1,4]oxazin-2-yl}-octahydro-1,3-benzoxazol-2-one] | 10 to 100 (≈ 19.7 to 197 µM) | – | < 1 | 1 to 10 (≈ 1.97 to 19.7 µM) | < 1 | 10 to 100 (≈ 19.7 to 197 µM) | < 1 | 1 to 10 (≈ 1.97 to 19.7 µM)
8 | COc1cnc2ccc(=O)n(CCN[C@@H]3CC[C@@H]4[C@@H](C3)OC(=O)N4c3ncc4c(n3)NC(=O)CO4)c2c1 [Compound 41, 1-(2-{[(3aR,6R,7aR)-2-oxo-3-{7-oxo-6H,7H,8H-pyrimido[5,4-b][1,4]oxazin-2-yl}-octahydro-1,3-benzoxazol-6-yl]amino}ethyl)-7-methoxy-1,2-dihydro-1,5-naphthyridin-2-one] | 1 to 10 (≈ 1.97 to 19.7 µM) | – | < 1 | 1 to 10 (≈ 1.97 to 19.7 µM) | < 1 | 10 to 100 (≈ 19.7 to 197 µM) | < 1 | –
9 | COc1ncc2ccc(=O)n(CCN[C@H]3CC[C@H]4[C@H](C3)OC(=O)N4c3ccc4c(n3)NC(=O)CO4)c2n1 [Compound 52, (3aS,6S,7aS)-6-[(2-{2-methoxy-7-oxo-7H,8H-pyrido[2,3-d]pyrimidin-8-yl}ethyl)amino]-3-{3-oxo-2H,3H,4H-pyrido[3,2-b][1,4]oxazin-6-yl}-octahydro-1,3-benzoxazol-2-one] | 10 to 100 (≈ 19.7 to 197 µM) | – | < 1 | 1 to 10 (≈ 1.97 to 19.7 µM) | < 1 | 1 to 10 (≈ 1.97 to 19.7 µM) | < 1 | < 1
10 | COc1cccc(-c2cccc(CN[C@H]3CC[C@H]4[C@H](C3)OC(=O)N4c3ccc4c(n3)NC(=O)CO4)c2)n1 [Compound 73, (3aS,6S,7aS)-6-({[3-(6-methoxypyridin-2-yl)phenyl]methyl}amino)-3-{3-oxo-2H,3H,4H-pyrido[3,2-b][1,4]oxazin-6-yl}-octahydro-1,3-benzoxazol-2-one] | 10 to 100 (≈ 19.9 to 199 µM) | – | 1 to 10 (≈ 1.99 to 19.9 µM) | 1 to 10 (≈ 1.99 to 19.9 µM) | < 1 | 1 to 10 (≈ 1.99 to 19.9 µM) | < 1 | 1 to 10 (≈ 1.99 to 19.9 µM)
11 | COc1cnc2ccc(=O)n(CCCN[C@H]3CC[C@H]4[C@H](C3)OC(=O)N4c3ccc4c(n3)NC(=O)CS4)c2c1 [Compound 96, 1-(3-{[(3aS,6S,7aS)-2-oxo-3-{3-oxo-2H,3H,4H-pyrido[3,2-b][1,4]thiazin-6-yl}-octahydro-1,3-benzoxazol-6-yl]amino}propyl)-7-methoxy-1,2-dihydro-1,5-naphthyridin-2-one] | 1 to 10 (≈ 1.86 to 18.6 µM) | – | – | < 1 | < 1 | < 1 | – | < 1
12 | O=C1COc2ccc(N3C(=O)O[C@H]4C[C@@H](NCCn5c(=O)ccc6ccc(OCCN7CCOCC7)cc65)CC[C@@H]43)nc2N1 [Compound 97, 1-(2-{[(3aS,6S,7aS)-2-oxo-3-{3-oxo-2H,3H,4H-pyrido[3,2-b][1,4]oxazin-6-yl}-octahydro-1,3-benzoxazol-6-yl]amino}ethyl)-7-[2-(morpholin-4-yl)ethoxy]-1,2-dihydroquinolin-2-one] | 10 to 100 (≈ 16.5 to 165 µM) | – | 1 to 10 (≈ 1.65 to 16.5 µM) | 10 to 100 (≈ 16.5 to 165 µM) | < 1 | 1 to 10 (≈ 1.65 to 16.5 µM) | 1 to 10 (≈ 1.65 to 16.5 µM) | 1 to 10 (≈ 1.65 to 16.5 µM)
13 | O=C1COc2ccc(N3C(=O)O[C@H]4C[C@@H](NCCn5c(=O)ccc6ccc(OC7CNC7)cc65)CC[C@@H]43)nc2N1 [Compound 103, 1-(2-{[(3aS,6S,7aS)-2-oxo-3-{3-oxo-2H,3H,4H-pyrido[3,2-b][1,4]oxazin-6-yl}-octahydro-1,3-benzoxazol-6-yl]amino}ethyl)-7-(azetidin-3-yloxy)-1,2-dihydroquinolin-2-one] | 1 to 10 (≈ 1.83 to 18.3 µM) | – | 1 to 10 (≈ 1.83 to 18.3 µM) | – | – | 10 to 100 (≈ 18.3 to 183 µM) | 1 to 10 (≈ 1.83 to 18.3 µM) | –
14 | N#Cc1ccc2c(ccc(=O)n2CCN[C@H]2CC[C@H]3[C@H](C2)OC(=O)N3c2ccc3c(n2)NC(=O)CO3)c1 [Compound 107, 1-(2-{[(3aS,6S,7aS)-2-oxo-3-{3-oxo-2H,3H,4H-pyrido[3,2-b][1,4]oxazin-6-yl}-octahydro-1,3-benzoxazol-6-yl]amino}ethyl)-2-oxo-1,2-dihydroquinoline-6-carbonitrile] | > 100 | – | 1 to 10 (≈ 2 to 20 µM) | 10 to 100 (≈ 20 to 200 µM) | 1 to 10 (≈ 2 to 20 µM) | 1 to 10 (≈ 2 to 20 µM) | 1 to 10 (≈ 2 to 20 µM) | 1 to 10 (≈ 2 to 20 µM)

Source: US10487093B2, “Heterocyclic compounds, in particular 2-oxo-4,4,5,5,6,6,7,7-octahydrobenzoxazole derivatives, and their use as antibacterial compounds” (priority 2016, dated 2019)
